From patent US20240140975A1, “ANTIVIRAL APPLICATION OF NUCLEOSIDE ANALOG OR COMBINATION FORMULATION CONTAINING NUCLEOSIDE ANALOG” (priority 2020, published 2024)
Where two headings read alike, the source gives them in different places.

Legend:
[1] = parameters: species or system SD rats; settings: male, Sprague-Dawley (SD), rat, in vivo
Experimental: 18 male SD rats were randomly divided into 6 groups, with 3 rats for each group. Before the experiment, they were fasted for 12 hours (not for the intravenous experiment group) and allowed to drink water. 4 hours after dosing, the animals were fed. Among them, 3 groups were intragastrically administered with 10 mg/kg of A9, A146 and A151, respectively, and the remaining 3 groups were intravenously administered with 2 mg/kg of A9, A146 and A151, respectively. The vehicle for administration was DMSO/EtOH/PEG300/0.9% NaCl (5/5/40/50, v/v/v/v).
5 min (intravenous only), 0.25, 0.5, 1.0, 2.0, 4.0, 6.0, 8.0 and 24 h post administration, 0.2 mL of blood sample was collected from jugular vein into EDTA-K2 tubes, and centrifuged at 11000 rpm for 5 min. The plasma was separated, and frozen in a refrigerator at −70° C. for testing. The operation was conducted in an ice water bath. The concentration of A9 in plasma was determined by LC-MS-MS, and the pharmacokinetic parameters were calculated.

[2] = system: 2019 novel coronavirus (SARS-CoV-2); assay: microbe, parasite or virus in culture; type: cell-based; settings: Vero E6 cells, 24 h p.i.; for inhibition at 5 µM: Severe acute respiratory syndrome coronavirus 2, Vero C1008, 24 h, read-out: Inhibition Rate (5 μM); for EC50: Severe acute respiratory syndrome coronavirus 2, Vero C1008, read-out: EC50
in vitro [3] = settings: human
[4] = system: respiratory syncytial virus (RSV); assay: Cytopathic effect (CPE) assay, RSV in HEp-2; type: cell-based; settings: human respiratory syncytial virus, HEp-2 cells
[5] = Tissue distribution test in mice; type: in vivo, CD-1 mice; settings: oral administration of A151, liver, kidney, lung, heart
Experimental: 16 male CD-1 mice were randomly divided into 4 groups, with 4 mice for each group.
Before the experiment, they were fasted for 12 hours and allowed to drink water. 2 hours after dosing, the animals were fed. The 4 groups were given 200 mg/kg A151 (dissolved in DMSO-enthanol-PEG300-saline, volume ratio: 5/5/40/50) by intragastric administration. At 1 h, 2 h, 4 h and 8 h after administration, the mice were anesthetized; blood sample was collected by heart puncture, and tissues of liver, kidney, heart and lung were harvested. The distribution profile of A9 in the tissues was determined by HPLC-MS/MS.

[6] = system: human coronavirus OC43 (HCoV OC43); assay: Cytopathic effect (CPE) assay, HCoV OC43 in Huh7; type: cell-based; settings: Betacoronavirus 1, OC43, Huh-7, Huh7 cells
Experimental: The inhibitory effects of compounds on the replication of respiratory syncytial virus (RSV), human coronavirus OC43, influenza A virus, Zika virus (Zika) were tested using cytopathic effect (CPE) assay.
Experimental cells were inoculated in 96-well cell culture plate at a certain cell density, and cultured in an incubator (5% CO2, 37° C.) overnight. Compounds and viruses were added on the second day. […] Then cell viability of each well was detected using Cell Titer-Glo or CCK-8. […] The cytotoxicity test method was the same as the corresponding antiviral test method without virus infection.
The antiviral activity and cytotoxicity of the compounds are respectively indicated by the inhibition rate (%) of compounds on virus-induced cellular viral effects and cell viability (%). Calculating formulas are as follows:
Inhibition rate (%)=(reading value of test well—average value of virus control)/(average value of cell control—average value of virus control)×100;
EC50 and CC50 value are calculated by Prism software, and the inhibition curve fitting method is “log (inhibitor) vs. response—Variable slope”.

[7] = system: porcine epidemic diarrhea virus (PEDV); assay: Anti-porcine epidemic diarrhea virus (PEDV) activity test in Vero cells, fluorescence quantitative PCR; type: cell-based; settings: 36 h
in vitro [8] = settings: human; remark: listed apart in the source
Zika virus (Zika) = assay: Cytopathic effect (CPE) assay, Zika virus in Huh7; type: cell-based; settings: for EC50: Huh-7, Huh7 cells, CPE
in vivo = settings: male, CD-1, mouse
[9] = Pharmacokinetic evaluation in mice
[10] = system: dengue fever virus (DENV); assay: Dengue virus plaque reduction test in Vero cells; type: cell-based; settings: Dengue virus, read-out: DENV (Vero) 5 μM (inhibition rate), 5 μM, plaque reduction
[11] = Porcine epidemic diarrhea virus, Vero
[12] = male, CD-1, mouse, in vivo, po, 50 mg/kg

Row | Compound | F % (oral bioavailability) [1] | T1/2 ([1]; iv, 2 mg/kg) | T1/2 ([1]; po, 10 mg/kg) | inhibition at 5 µM [2] | EC50 [2] | CC50 (in vitro [3]) | EC50 [4] | EC50 [6] | EC50 [7, 11] | CC50 (in vitro [8]) | EC50 (Zika virus (Zika)) | half-life (in vivo; po, 50 mg/kg) | AUC(0-inf) [9, 12] | AUC(0-t) [9, 12] | Cmax [9, 12] | Tmax [9, 12] | other results
1 | [2H]c1cc([C@]2(C#N)O[C@H](COC(=O)C(C)C)[C@@H](OC(=O)C(C)C)[C@H]2OC(=O)C(C)C)n2ncnc(N)c12 [Compound A151] | 56.7% | 1.5 h | 2.6 h | 99% | 310 nM | > 10000 nM | 630 nM | 1990 nM | < 100 nM |  |  |  |  |  |  |  | tissue distribution of metabolite A9 (in words) [5]: evenly distributed, without accumulation in liver or kidney
2 | N#C[C@@]1(c2ccc3c(N)ncnn23)O[C@H](CO)[C@@H](O)[C@H]1O [GS-441524, reference compound] |  |  |  | 99% | 480 nM | > 10000 nM | 730 nM | 1880 nM |  | > 10000 nM | 15000 nM | 1.2 h | 4620 ng·h/mL |  |  |  | half-life (in vivo; iv, 25 mg/kg): 1 h; AUC(0-inf) ([9]; male, CD-1, mouse, in vivo, iv, 25 mg/kg): 14600 ng·h/mL; Tmax ([9]; mice, p.o. 50 mg/kg, plasma): 0.8 h; EC50 [7]: 26 nM
3 | [2H]c1cc([C@]2(C#N)O[C@H](CO)[C@@H](O)[C@H]2O)n2ncnc(N)c12 [Compound A9] | 21.3% | 2.3 h | 3.4 h | 99% | 440 nM | > 10000 nM | 560 nM | 1770 nM | 16 nM | > 10000 nM | 12000 nM | 1 h | 6010 ng·h/mL | 5980 ng·h/mL | 3230 ng/mL | 1.2 h | inhibition at 5 µM [10]: 100%
4 | [2H]c1cc([C@]2(C#N)O[C@H](C([2H])([2H])O)[C@@H](O)[C@H]2O)n2ncnc(N)c12 (stereo in doubt) [Compound A11] |  |  |  | > 98% |  | > 10000 nM | 660 nM | 1990 nM | 5 nM | > 10000 nM |  | 1.9 h | 5750 ng·h/mL | 5680 ng·h/mL | 2120 ng/mL | 0.7 h | 
5 | [2H]c1cc([C@]2(C#N)O[C@H](COC(=O)C(C)C)[C@@H](O)[C@H]2O)n2ncnc(N)c12 [Compound A70] |  |  |  | 99% |  | > 10000 nM | 580 nM | 1900 nM | 2 nM | > 10000 nM |  |  |  |  |  |  | inhibition at 5 µM (Zika virus (Zika); Huh-7, 5 μM, Huh7 cells): ~27%
